According to US20040018562A1, “Receptor detection” (priority 2002, published 2004):

Key:
[1] = test system: membrane protein from CHO-M1; assay: Modulation of enzyme donor-GTP gamma-S conjugate inhibition by GTP gamma-S; type: binding; conditions: 1 hr; for % I: absence of GTP-gamma-S; for GTP-r-S (reading): membrane preincubated with GTP gamma-S
Experimental: In order to test if the inhibition was capable of being modulated. The experiments were performed by incubating the membrane preparation with GTPgamma-S (10 ul of 10 uM). Higher concentrations of enzyme donor together with another detergent saponin were tried to enhance signal and minimize non-specific binding.
10 ul of membrane protein (10 ug from CHO-M1) in a binding buffer (50 mM HEPES, 20 mM NaCl, 10 mM MgCl2, with 0.01% CHAPS or 0.01% saponin) was incubated with 10 ul of GTP gamma-S for 30 minutes at room temperature 10 ul of the enzyme donor conjugate at various concentrations was added and the mixture incubated for 60 minutes at ambient temperature. 10 ul of enzyme acceptor (0.45 uM) and 15 ul of the chemiluminescent reagent, Galacton Star with Emerald plus (Applied Biosystems, Foster city, Calif.) added and the microtiter plate read on the Lumicount (Packard, Meridien, Conn.). The readings are tabulated below with ED46 mer used as control. Open and close refer to free and bound enzyme donor conjugate to enzyme acceptor. Percentage inhibition is calculated by (open-close)/open readings and is in the absence of GTP-gamma-S.

[2] = test system: membrane protein from CHO-M1; assay: Binding of enzyme donor-GTP gamma-S conjugate to membrane protein (open/close readings); conditions: 1 hr
Experimental: 20 ul of membrane protein (10 ug from CHO-M1) in a binding buffer (50 mM HEPES, 20 mM NaCl, 10 mM MgCl2, with 1 mM DTT or 0.01% CHAPS) was incubated with 10 ul of enzyme donor-GTP gamma-S conjugate at various concentrations for 60 minutes at ambient temperature. 10 ul of enzyme acceptor (0.18 uM) and 15 ul of the chemiluminescent reagent, Galacton Star with Emerald plus (Applied Biosystems, Foster city, Calif.) added and the microtiter plate read on the Lumicount (Packard, Meridien, Conn.). The readings are tabulated below with ED46 mer used as control. Open and Close refer to free and bound enzyme donor conjugate to enzyme acceptor. Percentage inhibition is calculated by (open-close)/open readings.

[3] = Buffer with 0.01% CHAPS, 0.5 nM
[4] = Buffer with 0.01% Saponin, 0.5 nM
[5] = Buffer with 0.01% Saponin, 5 nM
[6] = Buffer with 0.01% Saponin, 10 nM
[7] = Buffer with 0.01% Saponin, 25 nM
[8] = Buffer with 0.01% Saponin, 50 nM

## SLAVVLQRRDWENPGVTQLNKLAAHPPFASWRNSEEARTDCPSQQL [45+1 mer, 46 mer enzyme donor fragment]
[1]; [3]
  % M: −1.6%
  close: 353
  open: 322
  % I: −9.7%
  GTP-r-S (reading): 348
[1]; Buffer with 0.01% CHAPS, 5 nM
  % M: 10.2%
  close: 1318
  open: 1214
  % I: −8.6%
  GTP-r-S (reading): 1468
[1]; Buffer with 0.01% CHAPS, 10 nM
  % M: 6.1%
  close: 3265
  open: 2971
  % I: −9.9%
  GTP-r-S (reading): 3478
[1]; Buffer with 0.01% CHAPS, 25 nM
  % M: −1.4%
  close: 10782
  open: 8526
  % I: −26.5%
  GTP-r-S (reading): 10634
[1]; Buffer with 0.01% CHAPS, 50 nM
  % M: 4.5%
  close: 18587
  open: 17367
  % I: −7.0%
  GTP-r-S (reading): 19466
[1]; [4]
  % M: 19.6%
  close: 228
  open: 215
  % I: −6.4%
  GTP-r-S (reading): 284
[1]; [5]
  % M: 20.2%
  close: 827
  open: 763
  % I: −8.3%
  GTP-r-S (reading): 1035
[1]; [6]
  % M: 11.6%
  close: 2220
  open: 2103
  % I: −5.6%
  GTP-r-S (reading): 2510
[1]; [7]
  % M: 10.5%
  close: 6971
  open: 6600
  % I: −5.6%
  GTP-r-S (reading): 7790
[1]; [8]
  % M: 8.9%
  close: 13597
  open: 13133
  % I: −3.5%
  GTP-r-S (reading): 14932
[2]; Binding buffer wCHAPS, 0.1 nM
  % I: 10.0%
  close: 1706
  open: 1895
[2]; Binding buffer wCHAPS, 0.5 nM
  % I: 3.9%
  close: 1846
  open: 1921
[2]; Binding buffer wCHAPS, 5 nM
  % I: 1.7%
  close: 3383
  open: 3442
[2]; Binding buffer wCHAPS, 10 nM
  % I: 6.0%
  close: 5017
  open: 5339
[2]; Binding buffer wDTT, 0.1 nM
  % I: 16.8%
  close: 1357
  open: 1632
[2]; Binding buffer wDTT, 0.5 nM
  % I: 15.2%
  close: 1338
  open: 1579
[2]; Binding buffer wDTT, 5 nM
  % I: 6.8%
  close: 2372
  open: 2544
[2]; Binding buffer wDTT, 10 nM
  % I: 12.6%
  close: 3502
  open: 4006
[2]; Binding buffer, 0.1 nM
  % I: 5.8%
  close: 1773
  open: 1882
[2]; Binding buffer, 0.5 nM
  % I: −2.3%
  close: 1940
  open: 1896
[2]; Binding buffer, 5 nM
  % I: −1.1%
  close: 2952
  open: 2921
[2]; Binding buffer, 10 nM
  % I: 6.7%
  close: 4176
  open: 4474
